From patent publication EP4680608B1, “2,6-DIHYDRO-7H-PYRAZOLO[3,4-C]PYRIDIN-7-ONE DERIVATIVES AS ANTI-MALARIAL AGENTS” (MMV Medicines for Malaria Venture, priority 2024, dated 2025)

Key:
P. falciparum DHODH = molecular target: T1, P. falciparum DHODH (Plasmodium falciparum, UniProt Q08210); test: DHODH inhibition, steady-state DCIP assay (PfDHODH); type: biochemical; details: recombinant PfDHODH, DCIP method, 25°C, 5 nM enzyme
T1 construct: His6 (N); made in house; host or cells: E. coli BL21-DE3 (phage-resistant)
Experimental: (§1) Compound stocks were prepared at 10-100 mM in DMSO, and diluted working stocks in DMSO were generated as appropriate. Compounds were plated from DMSO stocks in 96 well plate format using a Tecan D300e digital dispenser to generate a 3-fold dilution series over a concentration range of 0.0003 -100 µM (or 30 µM), yielding a final DMSO concentration of 1% in the assay. The top concentration used in the dose response was determined by the initial DMSO stock concentrations:100 µM for 100 mM stocks, and 30 µM for 10 mM stocks. Triplicate rate data were collected at each inhibitor concentration. Inhibitory IC50 values were determined by fitting the data to log (inhibitor) vs response equation Y = bottom + (top - bottom)/(1 + 10A ((X - Log IC50))) in GraphPad Prism.

P. falciparum 3D7 = test: Asexual blood-stage growth inhibition assay, SYBR green method; type: cell-based; details: ring-stage 3D7 parasites
Experimental: Asexual blood-stage EC50 assays. […] Compound stocks prepared in DMSO were plated using a Tecan D300e automated low volume liquid handler. Ring-stage 3D7 or Dd2 parasites (60 µL cells) (2% hematocrit, 0.5% parasitemia, final DMSO concentration 0.5%) were added to plates, incubated with compounds over a range of concentrations in technical triplicate for 72 h at 37 °C, 5% CO2, and then frozen (-80°C) overnight before analysis. […] Data were analyzed by non-linear regression using GraphPad Prism to determine the EC50 by fitting to the built-in equation (log(inhibitor) vs response-variable slope with four parameters).

P. vivax DHODH = P. vivax DHODH (Plasmodium vivax, UniProt A5K1N1); test: DHODH inhibition, steady-state DCIP assay (PvDHODH); type: biochemical; details: recombinant PvDHODH, DCIP method, 25°C, 5 nM enzyme; read-out: P. vivax DHODH (IC50)
Text: (§2) DOI: 10.1074/jbc.M206854200).
(§3) Proteins were expressed and purified on a Pharmacia FPLC using HisTrap HP column chromatography followed by gel filtration chromatography on a Pharmacia HiLoad 16/600 Superdex 200 column, and protein concentration determined based on OD280 using the previously described extinction coefficients (Kokkonda et al., 2020, J Med Chem, 63 (9), 4929-4956. DOI: 10.1021/acs.jmedchem.0c00311). Purified proteins were >95% pure based on SDS-PAGE analysis.
(§4) DHODH activity was monitored in a steady-state assay using the 2,6-dichloroindophenol (DCIP) method at 25°C in assay buffer (100 mM HEPES, pH 8.0, 150 mM NaCl, 1% glycerol, 0.1% Triton X-100 reduced) plus substrates 20 µM CoQD, 200 µM DHO, 120 µM DCIP, and 5 nM enzyme as previously described (Malmquist et al, 2008, Biochemistry, 47 (8), 2466-2475. DOI: 10.1021/bi702218c).
as §1, with “Prism. DSM265 ^2 was plated as an assay control in all studies.” for “Prism.”

Human DHODH = molecular target: T2, Human DHODH (Homo sapiens, UniProt Q02127); test: DHODH inhibition, steady-state DCIP assay (human DHODH); type: biochemical; details: recombinant HsDHODH, DCIP method, 25°C, 5 nM enzyme; top concentration 100 µM or 30 µM
T2 construct: C-terminal His6-tagged HsDHODH residues 29-395 in pET-22b (start ^29MATGDE); His6 (C); made in house; host or cells: E. coli BL21-DE3 (phage-resistant)
Text: as §2, §3, §4
as §1, with “Prism. DSM265 ^2 was plated as an assay control in all studies.” for “Prism.”

[1] = Plasmodium falciparum, 3D7, 72 h

T1 sequence (Q08210 158-569): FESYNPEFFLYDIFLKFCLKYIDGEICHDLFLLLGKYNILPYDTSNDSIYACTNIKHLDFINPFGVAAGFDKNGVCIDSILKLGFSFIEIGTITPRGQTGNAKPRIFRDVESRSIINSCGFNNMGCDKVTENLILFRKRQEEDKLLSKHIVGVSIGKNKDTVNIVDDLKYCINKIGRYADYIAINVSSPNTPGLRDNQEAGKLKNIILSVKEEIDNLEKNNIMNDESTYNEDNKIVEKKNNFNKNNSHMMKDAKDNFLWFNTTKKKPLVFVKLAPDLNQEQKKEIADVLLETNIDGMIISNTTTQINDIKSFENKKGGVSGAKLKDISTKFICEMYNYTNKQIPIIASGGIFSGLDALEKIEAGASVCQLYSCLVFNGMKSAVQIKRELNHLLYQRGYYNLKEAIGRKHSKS
Sequence of P. vivax DHODH (A5K1N1 entry or part of it): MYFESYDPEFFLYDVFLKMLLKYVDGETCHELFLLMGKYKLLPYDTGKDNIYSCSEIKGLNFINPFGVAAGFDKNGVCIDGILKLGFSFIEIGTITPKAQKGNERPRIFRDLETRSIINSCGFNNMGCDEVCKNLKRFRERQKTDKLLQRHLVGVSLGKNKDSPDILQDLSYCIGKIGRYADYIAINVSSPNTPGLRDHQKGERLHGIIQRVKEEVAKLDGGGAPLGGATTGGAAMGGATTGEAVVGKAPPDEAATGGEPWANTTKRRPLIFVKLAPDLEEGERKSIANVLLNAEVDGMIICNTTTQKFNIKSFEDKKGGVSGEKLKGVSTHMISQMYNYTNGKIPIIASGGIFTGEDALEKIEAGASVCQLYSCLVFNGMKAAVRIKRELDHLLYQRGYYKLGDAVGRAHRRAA
T2 sequence (Q02127 29-395): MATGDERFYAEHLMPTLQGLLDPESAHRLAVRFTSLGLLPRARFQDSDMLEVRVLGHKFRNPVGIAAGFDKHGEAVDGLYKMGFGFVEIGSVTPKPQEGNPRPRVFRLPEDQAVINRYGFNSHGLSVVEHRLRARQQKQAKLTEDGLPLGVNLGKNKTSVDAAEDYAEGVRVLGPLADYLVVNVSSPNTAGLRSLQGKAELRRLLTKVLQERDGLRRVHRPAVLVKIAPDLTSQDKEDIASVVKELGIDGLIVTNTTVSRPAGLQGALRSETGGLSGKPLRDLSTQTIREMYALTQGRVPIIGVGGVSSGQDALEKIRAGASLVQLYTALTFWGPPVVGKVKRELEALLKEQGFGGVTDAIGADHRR

**Q.** With `Cn1nc2c(=O)n(C3CC3)ncc2c1[C@](O)(c1ccc(C(F)(F)F)c(Cl)c1)C(F)(F)F` (single isomer, unassigned) [5-15] as the compound, how does the IC50 (P. falciparum DHODH) read?
**A.** Its IC50 is 8.6 nM.

**Q.** And the EC50 (P. falciparum 3D7; [1])?
**A.** The EC50 was 0.29 nM.

**Q.** And the IC50 (P. vivax DHODH)?
**A.** The IC50 was 9.3 nM.

**Q.** And the IC50 (Human DHODH)?
**A.** Its IC50 is 24000 nM.

**Q.** What does the source list for `Cn1nc2c(=O)n(C3CC3)cnc2c1[C@](O)(c1ccc(C(F)(F)F)c(Cl)c1)C(F)(F)F` (single isomer, unassigned) [5-17]?
**A.** IC50 (P. falciparum DHODH): 4.6 nM; EC50 (P. falciparum 3D7; [1]): 0.046 nM; IC50 (P. vivax DHODH): 6.1 nM; IC50 (Human DHODH): 5600 nM

**Q.** `Cn1nc2c(=O)n(C3CC3)cnc2c1[C@](O)(c1ccc(C(F)(F)F)c(C#N)c1)C(F)(F)F` (single isomer, unassigned) [5-19] was tested. Which IC50 (P. falciparum DHODH) did it give?
**A.** The IC50 was 12 nM.

**Q.** What about the EC50 (P. falciparum 3D7; 72 h) of the same compound?
**A.** The EC50 was 0.35 nM.

**Q.** What about the IC50 (P. vivax DHODH) of the same compound?
**A.** The IC50 was 20 nM.

**Q.** What about the IC50 (Human DHODH) of the same compound?
**A.** Its IC50 is 17000 nM.

**Q.** For `Cn1nc2c(=O)n(C3CC3)cnc2c1[C@](O)(c1ccc(C(F)(F)F)nc1)C(F)(F)F` (single isomer, unassigned) [5-21], which IC50 (P. falciparum DHODH) is on record?
**A.** Its IC50 is 31 nM.

**Q.** What about the EC50 (P. falciparum 3D7; [1]) of the same compound?
**A.** Its EC50 is 2.1 nM.

**Q.** What about the IC50 (P. vivax DHODH) of the same compound?
**A.** Its IC50 is 29 nM.

**Q.** What about the IC50 (Human DHODH) of the same compound?
**A.** The IC50 was greater than 30000 nM.

**Q.** With `Cn1nc2c(=O)n(C3CC3)cnc2c1[C@](O)(c1cnc(C(F)(F)F)c(Cl)c1)C(F)F` (single isomer, unassigned) [5-22] as the compound, how does the IC50 (P. falciparum DHODH) read?
**A.** Its IC50 is 11 nM.

**Q.** And the EC50 (P. falciparum 3D7; [1])?
**A.** Its EC50 is 6.1 nM.

**Q.** What about the IC50 (P. vivax DHODH) of the same compound?
**A.** Its IC50 is 7.7 nM.

**Q.** What about the IC50 (Human DHODH) of the same compound?
**A.** Its IC50 is 22000 nM.

**Q.** Which results are given for `CC(C)n1cnc2c([C@](O)(c3ccc(C(F)(F)F)c(Cl)c3)C(F)(F)F)n(C)nc2c1=O` (single isomer, unassigned) [5-32]?
**A.** IC50 (P. falciparum DHODH): 5 nM; EC50 (P. falciparum 3D7; [1]): 0.25 nM; IC50 (P. vivax DHODH): 8.5 nM; IC50 (Human DHODH): 14000 nM

**Q.** With `Cn1nc2c(=O)n(C3CC3)cnc2c1[C@](N)(c1ccc(C(F)(F)F)c(C#N)c1)C(F)(F)F` (single isomer, unassigned) [5-40] as the compound, how does the IC50 (P. falciparum DHODH) read?
**A.** Its IC50 is 18 nM.

**Q.** And the EC50 (P. falciparum 3D7; [1])?
**A.** The EC50 was 3.1 nM.

**Q.** And the IC50 (P. vivax DHODH)?
**A.** Its IC50 is 22 nM.

**Q.** And the IC50 (Human DHODH)?
**A.** The IC50 was greater than 30000 nM.

**Q.** Which results are given for `Cn1nc2c(=O)n(C3CC3)ccc2c1[C@](N)(c1ccc(C(F)(F)F)c(C#N)c1)C(F)(F)F` (single isomer, unassigned) [5-45]?
**A.** IC50 (P. falciparum DHODH): 8.2 nM; EC50 (P. falciparum 3D7; [1]): 0.85 nM; IC50 (P. vivax DHODH): 8.5 nM; IC50 (Human DHODH): 30000 nM

**Q.** What does the source list for `Cn1nc2c(=O)n(C3CC3)ccc2c1[C@](N)(c1ccc(C(F)(F)F)c(Cl)c1)C(F)(F)F` (single isomer, unassigned) [5-49]?
**A.** IC50 (P. falciparum DHODH): 3.9 nM; EC50 (P. falciparum 3D7; [1]): 0.64 nM; IC50 (P. vivax DHODH): 4.2 nM; IC50 (Human DHODH): 9000 nM

**Q.** For `Cn1nc2c(=O)n(C3CC3)cnc2c1[C@](N)(c1ccc(C(F)(F)F)c(Cl)c1)C(F)(F)F` (single isomer, unassigned) [5-51], which IC50 (P. falciparum DHODH) is on record?
**A.** The IC50 was 4.3 nM.

**Q.** What about the EC50 (P. falciparum 3D7; [1]) of the same compound?
**A.** Its EC50 is 0.71 nM.

**Q.** And the IC50 (P. vivax DHODH)?
**A.** Its IC50 is 4 nM.

**Q.** And the IC50 (Human DHODH)?
**A.** The IC50 was 30000 nM.

**Q.** `Cn1nc2c(=O)n(C3CC3)cnc2c1[C@](O)(c1cnc(C(F)(F)F)c(C#N)c1)C(F)(F)F` (single isomer, unassigned) [5-52] was tested. Which IC50 (P. falciparum DHODH) did it give?
**A.** The IC50 was 62 nM.

**Q.** What about the EC50 (P. falciparum 3D7; [1]) of the same compound?
**A.** The EC50 was 11 nM.

**Q.** And the IC50 (P. vivax DHODH)?
**A.** The IC50 was 46 nM.

**Q.** What about the IC50 (Human DHODH) of the same compound?
**A.** The IC50 was greater than 30000 nM.

**Q.** Which IC50 (P. falciparum DHODH) does the source give for `Cn1nc2c(=O)n(C3CC3)cnc2c1[C@](O)(c1ccc(C(F)F)c(C#N)c1)C(F)(F)F` (single isomer, unassigned) [5-54] here?
**A.** The IC50 was 44 nM.

**Q.** And the EC50 (P. falciparum 3D7; [1])?
**A.** The EC50 was 3 nM.

**Q.** And the IC50 (P. vivax DHODH)?
**A.** The IC50 was 3.5 nM.

**Q.** What about the IC50 (Human DHODH) of the same compound?
**A.** Its IC50 is greater than 30000 nM.

**Q.** For `CCC(O)(c1cnc(C(F)(F)F)c(Cl)c1)c1c2cc(C)n(C3CC3)c(=O)c2nn1C` (centres unmarked) [1-7, 3-(1-(5-chloro-6-(trifluoromethyl)pyridin-3-yl)-1-hydroxypropyl)-6-cyclopropyl-2,5-dimethyl-2,6-dihydro-7H-pyrazolo[3,4-c]pyridin-7-one], which IC50 (P. falciparum DHODH) is on record?
**A.** Its IC50 is 60 nM.

**Q.** And the EC50 (P. falciparum 3D7; [1])?
**A.** Its EC50 is 6.5 nM.

**Q.** And the IC50 (P. vivax DHODH)?
**A.** Its IC50 is 26 nM.

**Q.** What about the IC50 (Human DHODH) of the same compound?
**A.** Its IC50 is 14000 nM.

**Q.** Which results are given for `Cn1nc2c(=O)n(CC(F)(F)F)cnc2c1[C@](O)(c1ccc(C(F)(F)F)c(Cl)c1)C(F)(F)F` [5-26, (R)-3-(1-(3-chloro-4-(trifluoromethyl)phenyl)-2,2,2-trifluoro-1-hydroxyethyl)-2-methyl-6-(2,2,2-trifluoroethyl)-2,6-dihydro-7H-pyrazolo[4,3-d]pyrimidin-7-one]?
**A.** IC50 (P. falciparum DHODH): 17 nM; EC50 (P. falciparum 3D7; [1]): 0.39 nM; IC50 (P. vivax DHODH): 25 nM; IC50 (Human DHODH): > 30000 nM
